The test system of the experiment is Huh7 cells that stably maintain a subgenomic HCV replicon (S22.3 cell-line). Kind of experiment: Cell based HCV RNA replication assay (S22.3 replicon cells, real-time RT-PCR). The conditions noted are these: Hepatitis C virus, Huh-7, 72 hours. On the procedure:
Huh7 cells that stably maintain a subgenomic HCV replicon were established as previously described (Lohman et al., 1999. Science 285: 110-113) and designated as the S22.3 cell-line. S22.3 cells were maintained in Dulbecco's Modified […] Medium (DMEM) supplemented with 10% FBS and 0.5 mg/mL neomycin (Standard Medium). During the assay, DMEM medium supplemented with 10% FBS, containing 0.5% DMSO and lacking neomycin was used (Assay Medium). 16 hours prior to compound addition, S22.3 cells are trypsinized and diluted to 100 000 cells/ml in Standard Medium. 100μL (10 000 cells) are distributed into each well of a 96-well plate. The plate was then incubated at 37° C. with 5% CO2 until the next day.
10 μL of test compound (in 100% DMSO) was added to 2 ml of Assay Medium for a final DMSO concentration of 0.5% and the solution was sonicated for 15 min and filtered through a […] Millipore Filter Unit. 900 μl was transferred into row A of a Polypropylene Deep-Well Titer Plate. Rows B to H, contain 400 μL aliquots of Assay Medium (containing 0.5% DMSO), and were used to prepare serial dilutions (1/2) by transferring 400 μl from row to row (no compound was included in row H).
Cell culture medium was aspirated from the 96-well plate containing the S22.3 cells. 175 μL of assay medium with the appropriate dilution of test compound was transferred from each well of the compound plate to the corresponding well of the cell culture plate (row H was used as the “No inhibition control”). The cell culture plate was incubated at 37° C. with 5% CO2 for 72 hours.
Following the 72 hour incubation period, the total cellular RNA was extracted from the S22.3 cells of the 96-well plate using the RNeasy 96 kit (Qiagen®, RNeasy Handbook. 1999.). Briefly, assay medium was completely removed from cells and 100 μL of RLT buffer (Qiagen®) containing 143 mM β-mercaptoethanol was added to each well of the 96-well cell-culture plate. The microplate was gently shaken for 20 sec. 100 μL of 70% ethanol was then added to each microplate well, and mixed by pipetting. The lysate was removed and applied to the wells of a RNeasy 96 (Qiagen®) plate that was placed on top of a Qiagen® Square-Well Block. The RNeasy 96 plate was sealed with tape and the Square-Well Block with the RNeasy 96 plate was loaded into the holder and placed in a rotor bucket of a 4K15C centrifuge. The sample was centrifuged at 6000 rpm (˜5600×g) for 4 min at room temperature. The tape was removed from the plate and 0.8 ml of Buffer RW1 (Qiagen® RNeasy 96 kit) was added to each well of the RNeasy 96 plate. The RNeasy 96 plate was sealed with a new piece of tape and centrifuged at 6000 rpm for 4 min at room temperature. The RNeasy 96 plate was placed on top of another clean Square-Well Block, the tape removed and 0.8 ml of Buffer RPE (Qiagen® RNeasy 96 kit) was added to each well of the RNeasy 96 plate. The RNeasy 96 plate was sealed with a new piece of tape and centrifuged at 6000 rpm for 4 min at room temperature. The tape was removed and another 0.8 ml of Buffer RPE (Qiagen® RNeasy 96 kit) was added to each well of the RNeasy 96 plate. The RNeasy 96 plate was sealed with a new piece of tape and centrifuged at 6000 rpm for 10 min at room temperature. Tape was removed, the RNeasy 96 plate was placed on top of a rack containing 1.2-mL collection microtubes. The RNA was eluted by adding 50 μL of RNase-free water to each well, sealing plate with a new piece of tape and incubated for 1 min at room temperature. The plate was then centrifuged at 6000 rpm for 4 min at room temperature. The elution step was repeated with a second volume of 50 μl RNase-free water. The microtubes with total cellular RNA are stored at −70° C.
RNA was quantified on the STORM® system (Molecular Dynamics®) using the RiboGreen® RNA Quantification Kit (Molecular Probes®). Briefly, the RiboGreen reagent was diluted 200-fold in TE (10 mM Tris-HCl pH=7.5, 1 mM EDTA). Generally, 50 μL of reagent was diluted in 10 mL TE. […]
For orientation: Replicon systems follow genome replication, usually without infectious particles.
For orientation: EC50 means the concentration giving half of the maximal effect. A higher EC50 goes with a need for much substance. On to `O=C(O)/C=C/c1ccc(NC(=O)C2(NC(=O)c3ccc4c(c3)nc(-c3ccoc3)n4C3CCCCC3)CCCCC2)cc1` [compound 1072], for which the EC50 is ≤ 5 µM.

Regarding `Cc1oc(-c2cccc(NC(=O)[C@@H](C)NC(=O)c3ccc4c(c3)nc(-c3ccoc3)n4C3CCCCC3)c2)cc1C(=O)O` [compound 1074], the EC50 is ≤ 5 µM. With `Cn1c(C(=O)O)cc2cc(NC(=O)C3(NC(=O)c4ccc5c(c4)nc(-c4ccoc4)n5C4CCCCC4)CCCNC3)ccc21` (centres unmarked) [compound 1104], the EC50 was ≤ 5 µM. `CCN1CCC(NC(=O)c2ccc3c(c2)nc(-c2ccoc2)n3C2CCCCC2)(C(=O)Nc2ccc(-c3nc(C(=O)O)cs3)cc2)CC1` [compound 1108]: the EC50 was ≤ 5 µM.

`CC(NC(=O)c1ccc2c(c1)nc(-c1ccoc1)n2C1CCCCC1)C(=O)Nc1ccc(-c2ccc(C(=O)O)o2)cc1` (centres unmarked) [compound 1060] returned an EC50 of 5 to 50 µM. Then `CC[C@@H](NC(=O)c1ccc2c(c1)nc(-c1ccoc1)n2C1CCCCC1)C(=O)Nc1ccc(/C=C/C(=O)O)cc1` [compound 1075, (E)-3-[4-((R)-2-{[1-(1-Cyclohexyl-2-furan-3-yl-1H-benzoimidazol-5-yl)-methanoyl]-amino}-butanoylamino)-phenyl]-acrylic acid], with 5 to 50 µM; and `Cc1cc(NC(=O)C2(NC(=O)c3ccc4c(c3)nc(-c3ccoc3)n4C3CCCCC3)CCCC2)ccc1/C=C/C(=O)O` [compound 1088], with ≤ 5 µM. As for `CC(C)(NC(=O)c1ccc2c(c1)nc(-c1ccoc1)n2C1CCCCC1)C(=O)Nc1ccc(/C=C/C(=O)O)cc1` [compound 1093], the EC50 is ≤ 5 µM. On to `O=C(O)/C=C/c1ccc(NC(=O)C2(NC(=O)c3ccc4c(c3)nc(-c3ccoc3)n4C3CCCCC3)CC2)cc1` [compound 1070, (E)-3-(4-{[1-(1-{[1-(1-Cyclohexyl-2-furan-3-yl-1H-benzoimidazol-5-yl)-methanoyl]-amino}-cyclopropyl)-methanoyl]-amino}-phenyl)-acrylic acid], for which the EC50 was 5 to 50 µM. `C[C@@H](NC(=O)c1ccc2c(c1)nc(-c1ccc[nH]1)n2C1CCCCC1)C(=O)Nc1ccc(/C=C/C(=O)O)cc1` [compound 2004] yielded an EC50 of 5 to 50 µM. Regarding `O=C(NC1(C(=O)Nc2ccc(-c3ccc(C(=O)O)o3)cc2)CCCC1)c1ccc2c(c1)nc(-c1ccoc1)n2C1CCCCC1` [compound 1080], the concentration giving a half-maximal response (EC50) was ≤ 5 µM.

As for `CC1CCCC(C)C1n1c(-c2ccco2)nc2cc(C(=O)NC3(C(=O)Nc4ccc(C=CC(=O)O)cc4)CCCC3)ccc21` (mixture of isomers) [compound 2033], the EC50 is ≤ 5 µM.

Regarding `CC(C)(C)OC(=O)N1CCC(NC(=O)c2ccc3c(c2)nc(-c2ccoc2)n3C2CCCCC2)(C(=O)Nc2ccc(/C=C/C(=O)O)cc2)CC1` [compound 1089], the EC50 is ≤ 5 µM. In the case of `CC1CCCC(C)C1n1c(-c2cccs2)nc2cc(C(=O)NC3(C(=O)Nc4ccc(C=CC(=O)O)cc4)CCCC3)ccc21` (mixture of isomers) [compound 2035], the EC50 is ≤ 5 µM.

Consider `O=C(O)/C=C/c1ccc(NC(=O)C2(NC(=O)c3ccc4c(c3)nc(-c3cccs3)n4C3CCCCC3)CCCC2)cc1` [compound 2050], for which the half-maximal effective concentration (EC50) is ≤ 5 µM. As for `O=C(O)/C=C/c1ccc(NC(=O)C2(NC(=O)c3ccc4c(c3)nc(-c3ccoc3)n4C3CCCCC3)CCC2)cc1` [compound 1094], the EC50 is ≤ 5 µM. Then `CC(NC(=O)c1ccc2c(c1)nc(-c1ccoc1)n2C1CCCCC1)C(=O)Nc1cccc(-c2cccc(N)c2)c1` (centres unmarked) [compound 1022], with 5 to 50 µM; and `O=C(O)/C=C/c1ccc(NC(=O)C2(NC(=O)c3ccc4c(c3)nc(-c3ccoc3)n4C3CCCCC3)CCNCC2)cc1` [compound 1100], with ≤ 5 µM; and `O=C(O)C=Cc1ccc(NC(=O)C2(NC(=O)c3ccc4c(c3)nc(-c3ccco3)n4C3CC4CCC3C4)CCCC2)cc1` (mixture of isomers) [compound 2017], with ≤ 5 µM. `CCN1CCC(NC(=O)c2ccc3c(c2)nc(-c2ccoc2)n3C2CCCCC2)(C(=O)Nc2ccc(-c3nc(C(N)=O)cs3)cc2)CC1` [compound 1109]: the EC50 was ≤ 5 µM.

(Values after patent US6841566B2, “Viral polymerase inhibitors” (Boehringer Ingelheim, Ltd., priority 2001, dated 2005).)
